According to PubChem BioAssay (NCI):
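Grown in 96-well plates, cells were treated for 48 hours with each compound at five concentrations. Insufficient inhibition: endpoint recorded as highest concentration tested. GI50 is the concentration that inhibits growth by half. TGI is the concentration that stops growth completely.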

Columns and labels:
Test in all cases: NCI anticancer screen, dose series, 48 h
UACC-62 melanoma = system: UACC-62 melanoma
K-562 leukemia = system: K-562 leukemia
SNB-19 CNS = system: SNB-19 CNS
HOP-92 NSCLC = system: HOP-92 NSCLC
RPMI-8226 leukemia = system: RPMI-8226 leukemia
SF-295 CNS = system: SF-295 CNS
HOP-62 NSCLC = system: HOP-62 NSCLC
IGROV1 ovarian = system: IGROV1 ovarian
EKVX NSCLC = system: EKVX NSCLC
SR leukemia = system: SR leukemia

| Structure (SMILES) | TGI (UACC-62 melanoma) [µM] | TGI (K-562 leukemia) [µM] | TGI (SNB-19 CNS) [µM] | TGI (HOP-92 NSCLC) [µM] | TGI (RPMI-8226 leukemia) [µM] | TGI (SF-295 CNS) [µM] | TGI (HOP-62 NSCLC) [µM] | TGI (IGROV1 ovarian) [µM] | TGI (EKVX NSCLC) [µM] | TGI (SR leukemia) [µM] | GI50 (EKVX NSCLC) [µM] | GI50 (SR leukemia) [µM] | GI50 (UACC-62 melanoma) [µM] | GI50 (K-562 leukemia) [µM] | GI50 (SNB-19 CNS) [µM] | GI50 (RPMI-8226 leukemia) [µM] | GI50 (SF-295 CNS) [µM] | GI50 (HOP-62 NSCLC) [µM] | GI50 (IGROV1 ovarian) [µM] | GI50 (HOP-92 NSCLC) [µM] |
| --- | --- | --- | --- | --- | --- | --- | --- | --- | --- | --- | --- | --- | --- | --- | --- | --- | --- | --- | --- | --- |
| O=C(O)c1ccccc1[Se][Se]c1ccccc1C(=O)O | 82.8 | > 100 | 45 | > 100 | > 100 | > 100 | 73.5 | > 100 |  |  |  |  |  |  |  |  |  |  |  |  |
| O=C1C2C(C(=O)N1OS(=O)(=O)c1ccccc1)N(Cc1ccccc1)C(=O)N2Cc1ccccc1 (stereo unspecified) | > 100 | > 100 | > 100 | > 100 | > 100 | > 100 | > 100 | > 100 | > 100 | > 100 |  |  |  |  |  |  |  |  |  |  |
| Cc1ccc(NC2=C(Cl)C(=O)N(Cc3ccccc3)C2=O)cc1O | > 100 | > 100 | > 100 |  | 47.5 | 81.8 | > 100 | > 100 | 52.6 | > 100 | 17.8 | 6.91 | 24.4 | 17.8 | 41.2 | 9.26 | 22 | 34.8 | 35.4 |  |
| CNS(=O)(=O)NNS(=O)(=O)c1ccc2ccccc2c1 | > 100 | > 100 | > 100 |  | > 100 | > 100 | > 100 | > 100 | > 100 | > 100 |  |  |  |  |  |  |  |  |  |  |
| CCOC(=O)CN1C(=O)c2cccc3cc([N+](=O)[O-])cc(c23)C1=O | 5.2 | 2.03 | 32.3 | 6.21 |  |  | 32.3 | 14.8 | 28.6 | 0.381 |  |  |  |  |  |  |  |  |  |  |
| Cc1ccc(N=Nc2ccc(N(CCC#N)CCC#N)cc2C)c(Br)c1 | > 100 | > 100 | > 100 |  | 35.8 | 93.1 | 93 | > 100 | > 100 |  |  |  |  |  |  |  |  |  |  |  |
| O=C(COc1ccc(Br)cc1Br)N1N=C(c2ccc([N+](=O)[O-])o2)CC1(O)c1ccccc1 (stereo unspecified) | 18.7 | > 100 | 68.2 |  | 8.96 | 53.7 | 27.5 | 75.9 | 9.59 | 8.77 |  |  |  |  |  |  |  |  |  |  |
| C/C(CC(=O)CCC(=O)Nc1cccc(C(F)(F)F)c1)=N\NC(=O)NN | > 100 | > 100 | > 100 | > 100 | > 100 | > 100 | > 100 | > 100 | > 100 |  |  |  |  |  |  |  |  |  |  |  |
| COc1cc(CNc2cnc3cc(N)cc(N)c3n2)cc(OC)c1 |  | 47 |  | 25.9 | 20 | 71.9 | 44.1 | > 100 | 67.4 | > 100 | 27.3 | 18.8 |  | 11.3 |  | 6 | 26.5 | 14.9 | 33.6 | 10.3 |
| Cc1ccc(C(=O)/C(=C/c2ccc([N+](=O)[O-])cc2)SCc2ccc(Cl)cc2)cc1 | 3.41 |  | 3.02 | 55.2 | 0.696 | 3.4 | > 100 | 8.6 | 13.9 | > 100 | 3.04 | 0.325 | 1.34 |  | 1.17 | 0.24 | 1.55 | 29.7 | 2.23 | 2.86 |
| CC1(c2ccc(F)cc2)C(C#N)C(=O)NC(=O)C1C#N (stereo unspecified) | > 100 | > 100 | > 100 | > 100 | > 100 | > 100 | > 100 | > 100 | > 100 |  |  |  |  |  |  |  |  |  |  |  |
| COC(=O)CC1CCN(C#N)CC1CC[N+](=O)[O-] (stereo unspecified) | > 100 | > 100 | > 100 |  | > 100 |  | > 100 | > 100 |  | > 100 |  |  |  |  |  |  |  |  |  |  |
| OCc1ccc(N2CCC2c2ccc(F)cc2)cc1Cl (stereo unspecified) | 6.95 | 58.6 | > 100 | 25.1 | 31.6 | 7.62 | > 68 | 0.742 |  | 54.8 |  | 22.6 | 0.397 | 6.66 | 36.6 | 6.56 | 0.438 | 10.1 |  | 3.14 |
| COc1ccccc1C12OC(=O)C1(C)Oc1ccccc1C2=O (stereo unspecified) | > 100 | > 100 | > 100 | > 100 | > 100 | > 100 | > 100 | > 100 | > 100 |  |  |  |  |  |  |  |  |  |  |  |
| NC(=O)c1sc(-n2cnc3ccccc32)cc1OCc1ccccc1Br | > 25 | > 25 | > 25 |  | > 25 | > 25 | > 25 | > 25 | > 25 | > 25 | 17.9 | 3.09 | 5.88 | 6.71 | 11.6 | 12.6 | 3.9 | 3.67 | 11 |  |
| C#Cc1ccc(-n2c(/C=C/c3ccc(C(F)(F)F)cc3)nc3ncccc3c2=O)cc1 | 3.61 | 8.71 | 4.25 | 3.44 | 6.28 |  | 5.11 | 4.02 |  | 8.08 |  | 2 | 1.62 | 2.96 | 1.91 | 1.39 |  | 2.43 | 1.96 | 1.32 |
| COc1cc(Cc2cnc(/N=C3\C(=O)N(CN4CCN(c5c(F)cc6c(=O)c(C(=O)O)cn(C7CC7)c6c5OC)CC4C)c4ccc(F)cc43)nc2N)cc(OC)c1OC (stereo unspecified) | 26 | > 100 | 51.3 | 21.8 | 8.24 | 30.2 | 27.4 | > 100 | 56.6 |  | 21.9 |  | 12.6 | 6.41 | 17.7 | 2.31 | 14.4 | 14.4 | 25.1 | 7.64 |
| O=C(N/C(=C\c1ccc(/C=C(\NC(=O)c2ccccc2)c2nc3cc([N+](=O)[O-])ccc3[nH]2)cc1)c1nc2cc([N+](=O)[O-])ccc2[nH]1)c1ccccc1 | > 100 | > 100 | > 100 | > 100 | > 100 | > 100 | > 100 | > 100 | > 100 |  |  |  |  |  |  |  |  |  |  |  |
